Assay results published in the supplement of paper PMC11781733.

Tests used:
Settings in all cases: exposure time: 15 min to 3 h acute
Dugesia japonica [1] = assay: loss of phototaxis incidence (% planarians (vehicle-normalised)); higher = higher incidence or increase relative to vehicle control
Procedure: (§1)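 Adult asexual Dugesia japonica planarians (1 per well, 48-well plate, n=24 over technical triplicates) were exposed acutely (15 min to 3 h) to each compound (0.5% DMSO or water vehicle) and screened on a robotic platform for crawl-out, stickiness, body shape, phototaxis, noxious-heat scrunching and locomotion endpoints. Binary endpoints are incidence rate x100 normalised to in-plate vehicle controls. Continuous endpoints are the median response normalised to the plate vehicle median, as % change or difference. Negative incidences after vehicle subtraction were set to 0.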

Dugesia japonica [2] = assay: total locomotor bursts minus vehicle (bursts difference vs vehicle); higher = higher incidence or increase relative to vehicle control
Procedure: as §1

Dugesia japonica [3] = assay: crawl-out incidence (% planarians); higher = higher incidence or increase relative to vehicle control
Procedure: as §1, with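 “x100.” for “x100 normalised to in-plate vehicle controls.”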

Dugesia japonica [4] = assay: hyperkinesis incidence (% planarians (vehicle-normalised)); higher = higher incidence or increase relative to vehicle control
Procedure: as §1

Dugesia japonica [5] = assay: speed in dark vs vehicle (% change vs vehicle); higher = higher incidence or increase relative to vehicle control
Procedure: as §1

Dugesia japonica [6] = assay: speed first 30 s blue light vs vehicle (% change vs vehicle); higher = higher incidence or increase relative to vehicle control
Procedure: as §1

Dugesia japonica [7] = assay: corkscrew incidence (% planarians (vehicle-normalised)); higher = higher incidence or increase relative to vehicle control
Procedure: as §1

Dugesia japonica [8] = assay: loss of heat-induced scrunching incidence (% planarians (vehicle-normalised)); higher = higher incidence or increase relative to vehicle control
Procedure: as §1

Dugesia japonica [9] = assay: stickiness incidence (% planarians (vehicle-normalised)); higher = higher incidence or increase relative to vehicle control
Procedure: as §1

Dugesia japonica [10] = assay: speed second 30 s blue light vs vehicle (% change vs vehicle); higher = higher incidence or increase relative to vehicle control
Procedure: as §1

Dugesia japonica [11] = assay: noxious heat displacement strength vs vehicle (% change vs vehicle); higher = higher incidence or increase relative to vehicle control
Procedure: as §1

Dugesia japonica [12] = assay: pharynx extrusion incidence (% planarians (vehicle-normalised)); higher = higher incidence or increase relative to vehicle control
Procedure: as §1

Dugesia japonica [13] = assay: resting fraction in blue light vs vehicle (difference in fraction x100 vs vehicle); higher = higher incidence or increase relative to vehicle control
Procedure: as §1

Dugesia japonica [14] = assay: C-shape incidence (% planarians (vehicle-normalised)); higher = higher incidence or increase relative to vehicle control
Procedure: as §1

Dugesia japonica [15] = assay: anxiety (time in outer well region) vs vehicle (% change vs vehicle); higher = higher incidence or increase relative to vehicle control
Procedure: as §1

Dugesia japonica [16] = assay: contracted body shape incidence (% planarians (vehicle-normalised)); higher = higher incidence or increase relative to vehicle control
Procedure: as §1

Dugesia japonica [17] = assay: resting fraction in dark vs vehicle (difference in fraction x100 vs vehicle); higher = higher incidence or increase relative to vehicle control
Procedure: as §1

Dugesia japonica [18] = assay: any abnormal body shape incidence (% planarians (vehicle-normalised)); higher = higher incidence or increase relative to vehicle control
Procedure: as §1

O=C(CCCN1CC=C(n2c(=O)[nH]c3ccccc32)CC1)c1ccc(F)cc1 [droperidol] (3.16 µM)
loss of phototaxis incidence (Dugesia japonica [1]): 45.8
total locomotor bursts minus vehicle (Dugesia japonica [2]): 18.8
crawl-out incidence (Dugesia japonica [3]): 0
hyperkinesis incidence (Dugesia japonica [4]): 37.5
speed in dark (Dugesia japonica [5]): -77.5
speed first 30 s blue light (Dugesia japonica [6]): -90.1
corkscrew incidence (Dugesia japonica [7]): 8.33
loss of heat-induced scrunching incidence (Dugesia japonica [8]): 66.7
stickiness incidence (Dugesia japonica [9]): 8.33
speed second 30 s blue light (Dugesia japonica [10]): -89.6
noxious heat displacement strength (Dugesia japonica [11]): -42.7
pharynx extrusion incidence (Dugesia japonica [12]): 0
resting fraction in blue light (Dugesia japonica [13]): 66.1
C-shape incidence (Dugesia japonica [14]): 12.5
anxiety (Dugesia japonica [15]): -4.16
contracted body shape incidence (Dugesia japonica [16]): 16.7
resting fraction in dark (Dugesia japonica [17]): 62.6
any abnormal body shape incidence (Dugesia japonica [18]): 50

O=C(CCCN1CC=C(n2c(=O)[nH]c3ccccc32)CC1)c1ccc(F)cc1 [droperidol] (10 µM)
loss of phototaxis incidence (Dugesia japonica [1]): 54.2
total locomotor bursts minus vehicle (Dugesia japonica [2]): 19.5
crawl-out incidence (Dugesia japonica [3]): 0
hyperkinesis incidence (Dugesia japonica [4]): 25
speed in dark (Dugesia japonica [5]): -80
speed first 30 s blue light (Dugesia japonica [6]): -93.8
corkscrew incidence (Dugesia japonica [7]): 12.5
loss of heat-induced scrunching incidence (Dugesia japonica [8]): 70.8
stickiness incidence (Dugesia japonica [9]): ≤ 0
speed second 30 s blue light (Dugesia japonica [10]): -91.1
noxious heat displacement strength (Dugesia japonica [11]): -23.3
pharynx extrusion incidence (Dugesia japonica [12]): 0
resting fraction in blue light (Dugesia japonica [13]): 67.9
C-shape incidence (Dugesia japonica [14]): 20.8
anxiety (Dugesia japonica [15]): -31.9
contracted body shape incidence (Dugesia japonica [16]): 29.2
resting fraction in dark (Dugesia japonica [17]): 68.7
any abnormal body shape incidence (Dugesia japonica [18]): 70.8

O=C(CCCN1CC=C(n2c(=O)[nH]c3ccccc32)CC1)c1ccc(F)cc1 [droperidol] (31.6 µM)
loss of phototaxis incidence (Dugesia japonica [1]): 58.3
total locomotor bursts minus vehicle (Dugesia japonica [2]): 12.2
crawl-out incidence (Dugesia japonica [3]): 0
hyperkinesis incidence (Dugesia japonica [4]): 25
speed in dark (Dugesia japonica [5]): -81.9
speed first 30 s blue light (Dugesia japonica [6]): -94.6
corkscrew incidence (Dugesia japonica [7]): 4.17
loss of heat-induced scrunching incidence (Dugesia japonica [8]): 75
stickiness incidence (Dugesia japonica [9]): 12.5
speed second 30 s blue light (Dugesia japonica [10]): -94.3
noxious heat displacement strength (Dugesia japonica [11]): -34
pharynx extrusion incidence (Dugesia japonica [12]): 0
resting fraction in blue light (Dugesia japonica [13]): 85.4
C-shape incidence (Dugesia japonica [14]): 29.2
anxiety (Dugesia japonica [15]): -26.3
contracted body shape incidence (Dugesia japonica [16]): 70.8
resting fraction in dark (Dugesia japonica [17]): 86.7
any abnormal body shape incidence (Dugesia japonica [18]): 95.8

O=C(CCCN1CC=C(n2c(=O)[nH]c3ccccc32)CC1)c1ccc(F)cc1 [droperidol] (100 µM)
loss of phototaxis incidence (Dugesia japonica [1]): 60.9
total locomotor bursts minus vehicle (Dugesia japonica [2]): 30
crawl-out incidence (Dugesia japonica [3]): 4.17
hyperkinesis incidence (Dugesia japonica [4]): 0
speed in dark (Dugesia japonica [5]): -79.8
speed first 30 s blue light (Dugesia japonica [6]): -94.2
corkscrew incidence (Dugesia japonica [7]): 0
loss of heat-induced scrunching incidence (Dugesia japonica [8]): 73.9
stickiness incidence (Dugesia japonica [9]): 13
speed second 30 s blue light (Dugesia japonica [10]): -96.2
noxious heat displacement strength (Dugesia japonica [11]): -26.6
pharynx extrusion incidence (Dugesia japonica [12]): 0
resting fraction in blue light (Dugesia japonica [13]): 93.1
C-shape incidence (Dugesia japonica [14]): 4.35
anxiety (Dugesia japonica [15]): -37
contracted body shape incidence (Dugesia japonica [16]): 100
resting fraction in dark (Dugesia japonica [17]): 74.8
any abnormal body shape incidence (Dugesia japonica [18]): 100

CN(C)CCC[C@@]1(c2ccc(F)cc2)OCc2cc(C#N)ccc21 [escitalopram] (31.6 µM)
loss of phototaxis incidence (Dugesia japonica [1]): 4.17
total locomotor bursts minus vehicle (Dugesia japonica [2]): -1.25
crawl-out incidence (Dugesia japonica [3]): 0
hyperkinesis incidence (Dugesia japonica [4]): 0
speed in dark (Dugesia japonica [5]): -4.33
speed first 30 s blue light (Dugesia japonica [6]): 12.5
corkscrew incidence (Dugesia japonica [7]): 0
loss of heat-induced scrunching incidence (Dugesia japonica [8]): 37.5
stickiness incidence (Dugesia japonica [9]): 8.33
speed second 30 s blue light (Dugesia japonica [10]): 4.85
noxious heat displacement strength (Dugesia japonica [11]): -31.5
pharynx extrusion incidence (Dugesia japonica [12]): 0
resting fraction in blue light (Dugesia japonica [13]): 0
C-shape incidence (Dugesia japonica [14]): 0
anxiety (Dugesia japonica [15]): 3.28
contracted body shape incidence (Dugesia japonica [16]): 4.17
resting fraction in dark (Dugesia japonica [17]): -4.32
any abnormal body shape incidence (Dugesia japonica [18]): 0

CN(C)CCC[C@@]1(c2ccc(F)cc2)OCc2cc(C#N)ccc21 [escitalopram] (100 µM)
loss of phototaxis incidence (Dugesia japonica [1]): 16.7
total locomotor bursts minus vehicle (Dugesia japonica [2]): 1.75
crawl-out incidence (Dugesia japonica [3]): 0
hyperkinesis incidence (Dugesia japonica [4]): 0
speed in dark (Dugesia japonica [5]): -3.87
speed first 30 s blue light (Dugesia japonica [6]): -13.7
corkscrew incidence (Dugesia japonica [7]): 0
loss of heat-induced scrunching incidence (Dugesia japonica [8]): 25
stickiness incidence (Dugesia japonica [9]): ≤ 0
speed second 30 s blue light (Dugesia japonica [10]): -2.15
noxious heat displacement strength (Dugesia japonica [11]): -34
pharynx extrusion incidence (Dugesia japonica [12]): 0
resting fraction in blue light (Dugesia japonica [13]): -0.46
C-shape incidence (Dugesia japonica [14]): 0
anxiety (Dugesia japonica [15]): 1.47
contracted body shape incidence (Dugesia japonica [16]): 0
resting fraction in dark (Dugesia japonica [17]): -4.57
any abnormal body shape incidence (Dugesia japonica [18]): 0

CN(C)CCC[C@@]1(c2ccc(F)cc2)OCc2cc(C#N)ccc21 [escitalopram] (316 µM)
loss of phototaxis incidence (Dugesia japonica [1]): ≤ 0
total locomotor bursts minus vehicle (Dugesia japonica [2]): 16
crawl-out incidence (Dugesia japonica [3]): 0
hyperkinesis incidence (Dugesia japonica [4]): 50
speed in dark (Dugesia japonica [5]): -24.6
speed first 30 s blue light (Dugesia japonica [6]): -31.5
corkscrew incidence (Dugesia japonica [7]): 0
loss of heat-induced scrunching incidence (Dugesia japonica [8]): 25
stickiness incidence (Dugesia japonica [9]): ≤ 0
speed second 30 s blue light (Dugesia japonica [10]): -35.5
noxious heat displacement strength (Dugesia japonica [11]): -39.8
pharynx extrusion incidence (Dugesia japonica [12]): 0
resting fraction in blue light (Dugesia japonica [13]): -0.69
C-shape incidence (Dugesia japonica [14]): 0
anxiety (Dugesia japonica [15]): 1.26
contracted body shape incidence (Dugesia japonica [16]): 0
resting fraction in dark (Dugesia japonica [17]): -1.78
any abnormal body shape incidence (Dugesia japonica [18]): 50
